Experimental findings from publication PMC5622107, “Small molecule inhibition of cGAS reduces interferon expression in primary macrophages from autoimmune mice” (Nature Communications, 2017) are described below.

In one assay the target is T1, apo-cGAS (Mus musculus, UniProt Q8C6L5).
T1 construct: full-length (for high-throughput screening) and residues 147–507 (for structural study) of cGAS; His6-SUMO (N, cleaved yes); made in house; host or cells: E. coli BL21(DE3) RIL
Nature of the assay: Isothermal titration calorimetry, cGAS in absence of dsDNA. The format is binding. On the procedure:
ITC measurements were performed at 25 °C using a MicroCal auto-iTC200 calorimeter (MicroCal, LLC). Purified truncated mouse cGAS was dialyzed against 40 mM HEPES buffer (pH 7.5) and 300 mM NaCl for 24 h at 4 °C. Dialysis led to some precipitation, which were removed through centrifugation followed by collection of the supernatant. The concentration of the protein in supernatant was measured using Pierce® BCA protein assay. The protein was flash frozen in liquid N2 and stored at −80 °C. For the ITC assay, the dialyzed protein was prediluted to 20 µM in the dialysis buffer and diluted to a final concentration of 10 µM in a final buffer containing 40 mM HEPES, 1% DMSO, 150 mM NaCl, 0.01% Tween-20 and + /− dsDNA 10 µM and + /− ATP or GTP 1 mM. Then, 2 μl RU.365 100 µM, dissolved in the buffer aforementioned, were injected into 0.2 ml of protein in the chamber every 150 s. Data for raw ITC and thermodynamic curves, each from one experiment, were downloaded after analysis using Affinimeter software and plotted using GraphPad Prism (7.01). The software calculates error bars as an indication of the contribution of the raw data noise that is determined from the integral of the standard deviation of the baseline during the injection.
A general note: In ITC the heat of successive injections is recorded.

The test system of assay [1] is RAW KO-cGAS reporter cells. Kind of assay: RAW KO-cGAS reporter cells stimulated with cGAMP. The format is cell-based, mouse. On the procedure: The sequence and annealing conditions of the dsDNA used is described above. Typically, 0.4 µg or 0.6 µg of dsDNA was used to stimulate RAW-Lucia ISG-KO-TREX1/ISG-KO-cGAS or RAW-Lucia ISG cells, respectively, which equated to 90% of maximal luciferase activity observed. dsDNA stimulation of RAW macrophages and subsequent luciferase measurements were performed with or without the addition of small molecules at indicated concentrations in each figure, or with DMSO as vehicle control. For the dose curve experiments, serial dilutions of inhibitors were applied to 6.7 × 10^5 cells, plated in 24-well dishes, and co-stimulated with 0.4 µg of dsDNA. In subsequent experiments using inhibitors in RAW cells, the small molecules were used at concentrations representing the derived EC75 values, while co-stimulated with one of the following: 0.4 µg dsDNA, 50 nM 5′ppp-HP20 hairpin RNA (a kind gift from Dr Anna Pyle, Yale University; sequence located in Supplementary Table 5), 10 µM cGAMP, or 100 U ml^−1 murine recombinant Ifnb (R&D Systems). dsDNA was transfected using Lipofectamine LTX. 5′ppp-HP20 RNA was transfected using Lipofectamine 2000. Cells were harvested 24 h post-transfection, washed with PBS, and lysed in 1× Luciferase Cell Lysis Buffer (Pierce).

Assay [2] has as its system BMDM cells from Trex1 −/− mice. Kind of assay: IFNB1 expression by qRT-PCR in BMDMs from Trex1 −/− mice. The format is cell-based, mouse. Conditions: 24 h treatment at IC50, qRT-PCR. The source says: C57BL/6 wild type and Trex1 ^−/− offspring from Trex1 ^+/− crosses (a kind gift from Dr Dan Stetson, University of Washington) were harvested at 6–8 weeks of age. Femurs and tibias were removed from age- and sex-matched mice. The ends were clipped and marrow pushed from bones via syringe. Clumps were broken apart via pipetting, rinsed, and pelleted in PBS, passed through a cell strainer, and plated in seven 100 mm petri dishes per mouse. Cells were matured in media described under the methods for cell lines with an additional 10 ng ml^−1 M-CSF (for a total of 20 ng ml^−1 M-CSF during the maturation period). On Day 7, cells were counted and re-plated at 5 × 10^5 cells ml^−1 in 100 mm petri dishes. BMDMs were maintained by adding an equal volume of media to each dish every 2 days after harvesting and performing a complete media change every 4 days after harvesting. IACUC protocols for humane termination of mice for Vanderbilt University were strictly followed.
BMDMs were incubated in the presence of DMSO or the various inhibitors, then harvested 24 h later. RNA was extracted using Trizol and chloroform. […] Real-time PCR against murine Actb1 and IFNB1 (see Supplementary Table 5 for primer sequences used) was carried out and the data was analyzed as previously described in the method section for cytokine analysis in RAW macrophages.
For orientation: In qPCR the cycle at which signal appears reflects the starting amount.

Usually Kd stands for the constant that tells how readily two partners part at equilibrium. Low readings indicate a tighter complex, high ones a looser complex.

T1 sequence (Q8C6L5 147-507): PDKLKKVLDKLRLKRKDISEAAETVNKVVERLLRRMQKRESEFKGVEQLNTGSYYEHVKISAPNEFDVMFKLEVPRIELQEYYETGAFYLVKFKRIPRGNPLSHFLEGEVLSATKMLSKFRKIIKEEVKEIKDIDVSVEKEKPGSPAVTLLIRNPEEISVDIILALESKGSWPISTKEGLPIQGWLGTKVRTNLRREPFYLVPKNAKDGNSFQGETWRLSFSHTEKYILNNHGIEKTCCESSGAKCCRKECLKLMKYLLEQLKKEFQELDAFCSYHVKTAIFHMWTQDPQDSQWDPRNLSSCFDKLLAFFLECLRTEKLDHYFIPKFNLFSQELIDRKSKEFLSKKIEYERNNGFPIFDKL

As for `Cc1nn(-c2nc3ccccc3[nH]2)c(O)c1C1OC(=O)c2ccccc21` (stereo not shown) [RU166365], at apo-cGAS, the Kd was 98.5 nM, the “T*ΔS” value is -1.511 kcal/mol, the rM is listed as 0.9384 and the ΔG was -9.559 kcal/mol. Besides, the ΔH at apo-cGAS is -11.07 kcal/mol.
Regarding `Cc1nn(-c2nc3ccc(Cl)c(Cl)c3[nH]2)c(O)c1C1OC(=O)c2ccccc21` (stereo not shown) [RU320521, 3-[1-(6,7-dichloro-1H-benzimidazol-2-yl)-5-hydroxy-3-methyl-pyrazol-4-yl]-3H-isobenzofuran-1-one], the “inhibition of reporter activity” value in assay [1] is “did not show any significant inhibition of reporter activity”. Further, in assay [2], the IFNB1 expression result was “reduced IFNB1 expression”.
